Assay [1] deals with Mus musculus. Briefly: Anti-obesity activity in male C57BL/6 mouse model of high-fat diet induced obesity assessed as body weight change at 50 mg/kg, po administered once a day for 8 weeks relative to control. The format is functional.
Assay [2] has as its system Mus musculus. The experiment in a line: Anti-obesity activity in male C57BL/6 mouse model of high-fat diet induced obesity assessed as body weight change at 50 mg/kg, po administered once a day for 6 weeks relative to control. The format is functional.
Assay [3] has as its system Mus musculus. Briefly: Anti-obesity activity in male C57BL/6 mouse model of high-fat diet induced obesity assessed as body weight change at 50 mg/kg, po administered once a day for 9 weeks relative to control. It counts as functional.
In assay [4] the test system is Mus musculus. Briefly: Anti-obesity activity in male C57BL/6 mouse model of high-fat diet induced obesity assessed as body weight change at 100 mg/kg, po administered once a day for 9 weeks relative to control. The format is functional.
A short description of assay [5]: Inhibition of V-ATPase in bovine chromaffin granules incubated for 1 hrs by absorbance based assay. It counts as subcellular, Bos taurus, Chromaffin granule.
For assay [6], the target named is T1, Pancreatic triacylglycerol lipase (Sus scrofa, UniProt P00591).
T1 sequence (P00591 whole entry): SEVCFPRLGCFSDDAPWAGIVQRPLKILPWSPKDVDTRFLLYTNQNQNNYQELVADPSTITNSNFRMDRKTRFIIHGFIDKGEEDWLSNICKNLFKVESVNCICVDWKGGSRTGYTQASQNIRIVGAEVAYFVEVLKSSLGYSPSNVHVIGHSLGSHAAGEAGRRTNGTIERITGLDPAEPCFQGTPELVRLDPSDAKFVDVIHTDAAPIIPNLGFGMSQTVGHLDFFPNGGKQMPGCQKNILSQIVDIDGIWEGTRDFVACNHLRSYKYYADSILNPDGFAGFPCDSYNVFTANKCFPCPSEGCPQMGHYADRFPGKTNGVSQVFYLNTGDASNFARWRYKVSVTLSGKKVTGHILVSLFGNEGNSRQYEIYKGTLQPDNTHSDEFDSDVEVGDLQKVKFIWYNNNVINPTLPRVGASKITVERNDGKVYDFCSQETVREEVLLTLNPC
Briefly: Inhibition of porcine pancreatic lipase using trioleate as substrate assessed as inhibition of substrate hydrolysis measured for 10 mins.

Assay [7] has as its system Mus musculus. Briefly: Anti-obesity activity in female C57BL/6 mouse model of high-fat diet induced obesity assessed as body weight change administered orally for 20 weeks relative to control. The format is functional. The following applies: route po.
The target in assay [8] is BDNF/NT-3 growth factors receptor (Homo sapiens, UniProt Q16620). Briefly: Binding affinity to recombinant human TrkB receptor ECD assessed as dissociation constant.
Assay [9] concerns Mus musculus. Briefly: Anti-obesity activity in male C57BL/6 mouse model of high-fat diet induced obesity assessed as body weight change at 30 mg/kg, po administered once a day for 8 weeks relative to control. It counts as functional.
The test system of assay [10] is Mus musculus. Briefly: Anti-obesity activity in male C57BL/6 mouse model of high-fat diet induced obesity assessed as body weight change at 1.25 mg/kg, ip administered once a day for 21 days relative to control. The format is functional. The following applies: time 21 day.
The subject of assay [11] is Mus musculus. The experiment in a line: Anti-obesity activity in male C57BL/6 mouse model of high-fat diet induced obesity assessed as body weight change at 0.002 mg/kg, ip administered once a day for 8 weeks relative to control. The format is functional.
The subject of assay [12] is Mus musculus. Briefly: Anti-obesity activity in male C57BL/6 mouse model of high-fat diet induced obesity assessed as body weight change at 1 mg/kg, po administered once a week for 7 weeks relative to control. It counts as functional.
For assay [13], the system named is Mus musculus. The experiment in a line: Anti-obesity activity in male C57BL/6 mouse model of high-fat diet induced obesity assessed as body weight change at 20 mg/kg, po administered once a day for 8 weeks relative to control. It counts as functional.
Assay [14] deals with Mus musculus. Briefly: Anti-obesity activity in male C57BL/6 mouse model of high-fat diet induced obesity assessed as body weight change at 50 mg/kg, ip administered every other day for 5 weeks relative to control. It counts as functional.
For assay [15], the system named is Mus musculus. The experiment in a line: Anti-obesity activity in male C57BL/6 mouse model of high-fat diet induced obesity assessed as body weight change at 30 mg/kg, po administered once a day for 10 weeks relative to control. The format is functional.
In assay [16] the test system is Mus musculus. Briefly: Anti-obesity activity in high-fat diet induced C57BL/6 obese mouse model assessed as body weight change at 30 mg/kg, po administered once daily for 10 weeks relative to control. The format is functional.

Activity, IC50 and Kd data for twelve molecules are collected here from ChEMBL document CHEMBL5126556, “Recent advances in natural anti-obesity compounds and derivatives based on in vivo evidence: A mini-review” (Eur J Med Chem, 2022).

By IC50 is commonly meant the concentration that inhibits the measured activity by half. What is called Kd is a measure of binding affinity in units of concentration.

Chain of BDNF/NT-3 growth factors receptor (Q16620 whole entry, the tested form may be a part): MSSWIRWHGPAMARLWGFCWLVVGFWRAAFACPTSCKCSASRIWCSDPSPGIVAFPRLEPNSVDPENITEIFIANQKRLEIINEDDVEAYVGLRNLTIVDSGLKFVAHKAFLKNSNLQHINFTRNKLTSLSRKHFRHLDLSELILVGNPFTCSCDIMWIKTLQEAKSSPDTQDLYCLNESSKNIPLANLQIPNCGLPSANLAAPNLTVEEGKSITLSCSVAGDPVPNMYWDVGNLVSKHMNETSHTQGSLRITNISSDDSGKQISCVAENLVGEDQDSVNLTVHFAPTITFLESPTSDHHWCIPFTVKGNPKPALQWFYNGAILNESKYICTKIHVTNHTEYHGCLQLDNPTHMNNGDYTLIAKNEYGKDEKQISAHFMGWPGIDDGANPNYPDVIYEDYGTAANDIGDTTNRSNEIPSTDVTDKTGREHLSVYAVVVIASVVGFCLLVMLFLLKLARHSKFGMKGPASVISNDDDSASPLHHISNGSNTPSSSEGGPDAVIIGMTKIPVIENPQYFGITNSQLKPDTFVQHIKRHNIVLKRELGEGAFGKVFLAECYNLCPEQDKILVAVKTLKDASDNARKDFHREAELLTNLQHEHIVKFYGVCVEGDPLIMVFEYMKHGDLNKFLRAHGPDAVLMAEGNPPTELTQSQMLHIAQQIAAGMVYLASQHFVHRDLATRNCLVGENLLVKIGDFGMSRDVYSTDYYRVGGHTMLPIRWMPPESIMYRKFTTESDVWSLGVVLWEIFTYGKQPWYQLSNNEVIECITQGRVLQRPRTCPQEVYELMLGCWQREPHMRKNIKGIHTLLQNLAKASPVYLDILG

On to `COc1cc(O)c(C(=O)[C@@H]2[C@H](CC=C(C)C)C(C)=CC[C@H]2c2ccccc2)c(O)c1` [PANDURATIN A], for which the Activity in the assay with Mus musculus [1] was 15%.

For the molecule `C[C@H](CC(=O)C[C@@H](C)[C@H]1C[C@H](O)[C@@]2(C)C3=C(C(=O)C[C@]12C)[C@@]1(C)CCC(=O)C(C)(C)[C@@H]1C[C@@H]3O)C(=O)O` [GANODERIC ACID A], the Activity in the assay with Mus musculus [2] came to 17.4%.

Consider `CC1(C)C=Cc2cc(-c3coc4cc(O)ccc4c3=O)ccc2O1` [ISOWIGHTEONE], for which the Activity in the assay with Mus musculus [3] was 8.3%.

`COc1cc2c(O)c3c(c(-c4ccc5c(c4)OCO5)c2cc1OC)C(=O)OC3` [DIPHYLLIN]: the Activity in the assay with Mus musculus [4] amounted to 13.7%. The molecule further showed an IC50 in assay [5] of 17 nM.

`CCCCC/C=C\C/C=C\C[C@@H](C[C@@H]1OC(=O)[C@H]1CCCCCC)OC(=O)[C@H](CC(C)C)NC=O`: the IC50 in [6] was determined as 140 nM.

Turning to `O=c1cc(-c2ccccc2)oc2c(O)c(O)ccc12` [7,8-DIHYDROXYFLAVONE], the Activity in the assay with Mus musculus [7] came out at 72.2%. In assay [8], the Kd is 10 nM.

In the case of `CC1(C)[C@@H](O)CC[C@]2(C)[C@H]3C(=O)C=C4[C@@H]5C[C@@](C)(C(=O)O)CC[C@]5(C)CC[C@@]4(C)[C@]3(C)CC[C@@H]12` [ENOXOLONE], the Activity with Mus musculus [9] turned out to be 30.2%.

With `CC1=C(CO)C(=O)O[C@@H]([C@@H](C)[C@H]2CC[C@H]3[C@@H]4C[C@H]5O[C@]56[C@@H](O)C=CC(=O)[C@]6(C)[C@H]4CC[C@]23C)C1` [WITHAFERIN A], the figures for the Activity in the assay with Mus musculus [10] and with Mus musculus [11] were 0% and 30.5%, respectively.

As to `O=C1N[C@@H]2C(=C[C@H](O)[C@@H](O)[C@H]2O)c2cc3c(c(O)c21)OCO3` [NARCICLASINE], the Activity with Mus musculus [12] was determined as 23.6%.

On to `C=C1C(=O)O[C@@H]2C[C@@]3(C)CCCC(=C)[C@@H]3C[C@H]12` [ISOALANTOLACTONE], for which, in the assay on Mus musculus [13], the Activity came out at 44.1%.

For `O=Cc1c(-c2nc3ccccc3c(=O)[nH]2)[nH]c2ccccc12`, the Activity with Mus musculus [14] is on record as -11.8%.

As to `O=c1oc2cc(O)ccc2c2ccc(O)cc12`, the Activity in the assay with Mus musculus [15] stood at 30.8%; in the assay on Mus musculus [16], 42.7%.
